We go through two molecules from US10731159B2, “Cationic lipid” (DAIICHI SANKYO COMPANY, LIMITED, priority 2013, dated 2020).

Test [1] relates to human hepatocellular carcinoma HuH-7 cell line. The test can be described thus: Test Example 11: mCherry mRNA expression in HuH-7 cells, fluorescent observation. In kind it is cell-based. The conditions noted are these: mCherry mRNA 2, 0.4, 0.08 μg/mL, one day after transfection, particle of Example 58. How it is done: As described below, the expression of mCherry was measured using a nucleic acid lipid particle prepared using a novel lipid.
The concentration of a human hepatocellular carcinoma HuH-7 cell line was adjusted to 10,000 cells/mL in a DMEM medium (manufactured by Invitrogen Corp.) containing 10% fetal bovine serum (culture medium). Then, the resulting culture solution was inoculated at 100 μL/well to a 96-well flat-bottomed plate (manufactured by Corning Inc./Falcon) and cultured at 37° C. for 1 day under 5.0% CO2. The nucleic acid lipid particle dispersion prepared in Example 58 was diluted with a culture medium to prepare dilution series having final mRNA concentrations of 2, 0.4, and 0.08 μg/mL in the medium. Then, each dilution was added to the cells after removal of the culture supernatant, and the culture was further continued. This operation was performed at N=3 for each concentration. A control group was cultured in only a culture medium.
One day after the transfection, the culture medium was removed, and 100 μL of 10 N Mildform (Wako Pure Chemical Industries Ltd.) was added to each well and left at room temperature for 10 minutes in the dark. […] After replacement with DPBS, the fluorescence was observed using IN Cell Analyzer 6000 (GE Healthcare Japan Corp.). […]

Another test has as its system human β-catenin gene. The test can be described thus: Test Example 2: β-catenin gene expression inhibition in HepG2 cells, 3 days, real-time PCR. In kind it is cell-based. The conditions noted are these: nucleic acid lipid particle of Example 31 containing the named lipid, read-out: β-catenin gene expression inhibitory activity IC50. Here is the method:
As described below, the strength of human β-catenin gene expression inhibitory activity was compared among nucleic acid lipid particles each prepared using a novel lipid.
The concentration of a human liver cancer HepG2 cell line (derived from human liver cancer) was adjusted to 50000 cells/mL in a DMEM medium (manufactured by Invitrogen Corp.) containing 10% fetal bovine serum (culture medium). Then, the resulting culture solution was inoculated at 100 μL/well to a 96-well flat-bottomed plate (manufactured by Corning Inc./Falcon) and cultured at 37° C. for 1 day under 5.0% CO2. The nucleic acid lipid particle-containing dispersion prepared in Example 31 was diluted with a culture medium to prepare dilution series having final double-stranded polynucleotide concentrations of 30, 3, 0.3, and 0.03 nM in the medium. Then, each dilution was added to the cells after removal of the culture supernatant, and the culture was further continued for 3 days. This operation was performed at N=3 for each concentration.
A lysate and cDNA for real-time PCR measurement were prepared from the transfected cells using TaqMan® Fast-Cells-to-Ct kit (Life Technologies, Inc./Ambion) according to the instruction manual. In the lysate preparation, Lysis Solution supplemented with DNase I was used. The probes for real-time PCR used were TaqMan® Gene Expression Assays (CTNNB1, FAM probe) (Hs00355045_m1, manufactured by Applied Biosystems, Inc.) for the human β-catenin gene and a human GAPDH gene probe as an internal standard (VIC probe, Hs99999905_m1, manufactured by Applied Biosystems, Inc.). 5 μL of TaqMan® Fast Advanced Master Mix, 2 μL of RNase-Free Water, 0.5 μL of each gene probe, and 2 μL of the prepared cDNA solution were added per well of a 384-well PCR plate (manufactured by Applied Biosystems, Inc.) to bring the total amount to 10 μL, which was then loaded in ViiA™ 7 Real-time PCR system (manufactured by Applied Biosystems, Inc.) and subjected to PCR under conditions given below. The real-time PCR was carried out at N=4 for the cDNA prepared from the lysate.
PCR initial activation: 95° C. for 20 seconds
PCR: 95° C. for 1 second • 62° C. for 20 seconds
This PCR cycle was repetitively performed 40 times.
The quantitative analysis was conducted by the ΔΔCt method.

As for `CCCCC/C=C\C/C=C\CCCCCCCC(CCCCCCCCCC)OC(=O)OCCCN(C)C` (centres unmarked) [Example 8, 3-Dimethylaminopropyl(9Z,12Z)-octacosa-19,22-dien-11-yl Carbonate], the “expression of mCherry (fluorescent observation, FIG. 6, in words)” value in test [1] is “promote the expression of mCherry”. As for `CCCCC/C=C\C/C=C\CCCCCCCCC(CCCCCCCC/C=C\C/C=C\CCCCC)OC(=O)OCCN(C)C` [Reference Example 2, 2-(Dimethylamino)ethyl(6Z,9Z,28Z,31Z)-heptatriaconta-6,9,28,31-tetraen-19-yl Carbonate, reference compound], the IC50 in the test with human β-catenin gene is above 30 nM.
